Where a name gives a salt, the structure may show the parent alone.
Legend:
Assay type in all cases: cell-based, human
NGAL [1] = test: NGAL protein ELISA in freshly isolated hPT cells; conditions: for NGAL protein upregulation in hPT cells: high doses, within 24 h; for Upregulation of NGAL hPT P(L): protein levels in cell lysates, table title says 72 h time point
Method: hPT cells were derived from whole human kidneys procured by the International Institute for the Advancement of Medicine (Edison, NJ). All tissues were scored by a pathologist as normal (i.e., derived from noncancerous, nondiseased tissue). […] Whole kidneys were perfused with Wisconsin medium and kept on ice until they arrived at the laboratory, which was usually within 24 h of removal from the donor. All buffers were continuously bubbled with 95% O2/5% CO2 and were maintained at 37°C. Minced cortical pieces from whole kidneys were subjected to collagenase digestion for 60 min, after which the supernatant was filtered through a 70-μm mesh filter to remove tissue fragments, centrifuged at 150g for 7 min, and the pellet resuspended in Dulbecco’s Modified Eagle’s Medium: […] Approximately, 5–7 × 10^6 cells were obtained per 1 g of human kidney cortical tissue. […] Composition of this supplemented medium was based on earlier work establishing optimal conditions for primary culture of rat PT cells (Lash et al., [1995]). Basal medium was a 1:1 mixture of DMEM/F12. […] Cultures were grown at 37°C in a humidified incubator under an atmosphere of 95% air/5% CO2 at pH 7.4. Cultures were grown to approximately 80–90% confluence (generally 5–6 days) prior to experiments. Cells were harvested by either scraping the flasks with a Teflon scraper or by brief incubation with Cellstripper (Cellgro, Herndon, VA) (in Ca^2+- and Mg^2+-free Hanks’ buffer). KIM-1 (DY1750), NGAL (DY1757), and M-CSF (DY216) Duo-Set® ELISA kits were purchased from R&D systems (Minneapolis, MN). Sandwich-ELISA experiments were conducted following the manufacturer’s instructions with slight modifications. A 96-well microplate (MaxiSorp®, Nunc, Thermo Scientific, NSW, Australia) was coated with 100 μL of capture antibodies (diluted 1:200 in PBS) and incubated overnight. The plate was then washed twice with washing buffer (0.05% Tween 20 in PBS, pH 7.4) and blocked by adding 300 μL of blocking buffer (1% bovine serum albumin (BSA) in PBS) for 1 h at room temperature. After washing two times with PBS, 100 μL of samples (cell culture media or cell lysates) or standards were then added to each well and incubated for 2 h at room temperature. The biotinylated detection antibodies were then diluted in blocking buffer, added to each well and incubated for 2 h. Horseradish peroxidase (HRP)-labeled streptavidin (100 μL) was then added to bind to detection antibodies. To each well, 100 μL of substrate solution (1:1 mixture of H2O2 and tetramethylbenzidine) was added and incubated for 20 min before reaction termination with 50 μL of stop solution (2N H2SO4). The optical density of each well was measured at 450 nm using a POLARstar Omega plate reader (BMG Labtech). All assays were performed at least three times, with at least two technical replicates in each assay.

KIM-1 mRNA = KIM-1 mRNA qRT-PCR in hRPTECs; design: key to Upregulation of KIM-1 hRPTECs R: +: statistically significant increase; −: no significant increase; conditions: mRNA levels; 72 h time point
Method: HK-2 cells (ATCC CRL-2190; Manassas, VA) were maintained in DMEM/F12 (Life Technologies; Sydney, NSW, Australia) supplemented with 5 μg/mL insulin, 5 μg/mL transferrin, 5 ng/mL sodium selenite (ITS; Roche; […] (passage 2) and culture kits were purchased from Lonza. […] were maintained in Renal Epithelial Cell BulletKitTM (CC-3190, Lonza) at 37°C and 5% CO2 atmosphere. Cells were passaged to 96-well plates with a density of 4000 cells/well. After 24 h culture, compounds with different concentration series were added into each well and incubated for 4, 24, 48, and 72 h. HK-2 and […] were treated with compounds for 4, 24, 48, and 72 h, then the cells were lysed and the RNA reverse transcribed with the TaqMan® Gene Expression Cells-to-CTTM Kit (Life Technologies) according to the manufacturer's instructions. […] Hs00273334_m1), Lcn2 (NGAL; Hs01008571_m1), and Csf1 (M-CSF; Hs00174164_m1). All probes span an exon-exon junction. The real-time quantitative reverse transcription PCR (qRT-PCR) was performed in a 10 μl final reaction mixture using a ViiA 7TM system (Applied Biosystems®, Sydney, NSW, Australia) based on the following thermo cycling conditions: 10 min at 95°C for one cycle, 15 sec at 95°C, 60 sec at 60°C for 40 cycles. The ViiA 7TM software was used for data analysis with Hprt1 expression used for normalization. All assays were performed at least three times, with at least two technical replicates in each assay.

KIM-1 = KIM-1 protein ELISA in hRPTECs; design: key to Upregulation of KIM-1 hRPTECs P: +: statistically significant increase; −: no significant increase; conditions: protein levels in culture medium; 72 h time point
Method: (§1) HK-2 cells (ATCC CRL-2190; Manassas, VA) were maintained in DMEM/F12 (Life Technologies; Sydney, NSW, Australia) supplemented with 5 μg/mL insulin, 5 μg/mL transferrin, 5 ng/mL sodium selenite (ITS; Roche; […] (passage 2) and culture kits were purchased from Lonza. […] were maintained in Renal Epithelial Cell BulletKitTM (CC-3190, Lonza) at 37°C and 5% CO2 atmosphere. Cells were passaged to 96-well plates with a density of 4000 cells/well. After 24 h culture, compounds with different concentration series were added into each well and incubated for 4, 24, 48, and 72 h. KIM-1 (DY1750), NGAL (DY1757), and M-CSF (DY216) Duo-Set® ELISA kits were purchased from R&D systems (Minneapolis, MN). Sandwich-ELISA experiments were conducted following the manufacturer's instructions with slight modifications. A 96-well microplate (MaxiSorp®, Nunc, Thermo Scientific, NSW, Australia) was coated with 100 μL of capture antibodies (diluted 1:200 in PBS) and incubated overnight. The plate was then washed twice with washing buffer (0.05% Tween 20 in PBS, pH 7.4) and blocked by adding 300 μL of blocking buffer (1% bovine serum albumin (BSA) in PBS) for 1 h at room temperature. After washing two times with PBS, 100 μL of samples (cell culture media or cell lysates) or standards were then added to each well and incubated for 2 h at room temperature. The biotinylated detection antibodies were then diluted in blocking buffer, added to each well and incubated for 2 h. Horseradish peroxidase (HRP)-labeled streptavidin (100 μL) was then added to bind to detection antibodies. To each well, 100 μL of substrate solution (1:1 mixture of H2O2 and tetramethylbenzidine) was added and incubated for 20 min before reaction termination with 50 μL of stop solution (2N H2SO4). The optical density of each well was measured at 450 nm using a POLARstar Omega plate reader (BMG Labtech). All assays were performed at least three times, with at least two technical replicates in each assay.

NGAL [2] = test: NGAL protein ELISA in hRPTECs; design: key to Upregulation of NGAL hRPTECs P: +: statistically significant increase; −: no significant increase; conditions: for Upregulation of NGAL hRPTECs P: protein levels in culture medium, 72 h time point
Method: as §1

Compound | NGAL protein upregulation in hPT cells (NGAL [1]) | Upregulation of NGAL hPT P(L) (NGAL [1]) | Upregulation of KIM-1 hRPTECs R (KIM-1 mRNA) | Upregulation of KIM-1 hRPTECs P (KIM-1) | Upregulation of NGAL hRPTECs P (NGAL [2]) | NGAL protein upregulation in hRPTECs (NGAL [2]; 4 h, culture medium (Fig. S5C))
N.N.[Cl][Pt][Cl] [Cisplatin, cisplatin] | significant upregulation | >60-fold | − | + | + | 
Colistin sulfate | significant upregulation | >60-fold | − | + | + | significant upregulation
CNC(C)C1CCC(N)C(OC2C(N)CC(N)C(OC3OCC(C)(O)C(NC)C3O)C2O)O1 (stereo not shown) [Gentamicin, gentamicin sulfate] | significant upregulation | >60-fold | − | + | + | 

From paper PMC4492764, “Evaluation of biomarkers for in vitro prediction of drug-induced nephrotoxicity: comparison of HK-2, immortalized human proximal tubule epithelial, and primary cultures of human proximal tubular cells” (Pharmacology Research & Perspectives, 2015)
